Test results from patent US12622918B2, “Formulations and dosages for administering a compound that inhibits MCL1 protein” (Amgen Inc., priority 2019, dated 2026).

Tests used:
[1] = Pharmacokinetics in monkeys; settings: male, monkey, in vivo, read-out: mean terminal elimination half-life (t1/2,z) (converted)
Description: The pharmacokinetics (PK) of the compound of Formula I after single intravenous (IV) or oral administration were characterized in male CD1 mice, female athymic nude mice, male Nu/Nu mice, male Sprague Dawley rats, male beagle dogs, and male cynomolgus monkeys. The clearance (CL) of the compound was low in mice, rats, dogs, and monkeys relative to their hepatic blood flow. Volume of distribution at steady state (Vss) in mice, rats, dogs, and monkeys was variable across the species.

MM1S = assay: Cell viability (CellTiterGlo), MM1S; assay type: cell-based; settings: Homo sapiens, MM1.S, Multiple myeloma, 24 hours, 10% FBS, read-out: AMS 176 IC50
KMS34 = assay: Cell viability (CellTiterGlo), KMS34; assay type: cell-based; settings: KMS-34; KMS34, Multiple myeloma; 24 hours; 10% FBS; read-out: AMS 176 IC50
MM1R = assay: Cell viability (CellTiterGlo), MM1R; assay type: cell-based; settings: MM.1R, Multiple myeloma, 24 hours, 10% FBS, read-out: AMS 176 IC50
KMM1 = assay: Cell viability (CellTiterGlo), KMM1; assay type: cell-based; settings: KMM-1; KMM1, Multiple myeloma; 24 hours; 10% FBS; read-out: AMS 176 IC50
Pfeiffer = assay: Cell viability (CellTiterGlo), Pfeiffer; assay type: cell-based; settings: Homo sapiens, NHL, 24 hours, 10% FBS, read-out: AMS 176 IC50
[2] = tested on: OPM2 multiple myeloma tumor cell line; assay: Viability of OPM2 cells; assay type: cell-based; settings: Homo sapiens
[3] = tested on: Adult patients with relapsed or refractory AML; assay: Dose-escalation study in relapsed or refractory AML, data cutoff May 17, 2019; assay type: in vivo
Description: Escalating doses started at 60 mg/m^2. For dose levels ≥180 mg/m^2, a lead-in dose of 120 mg/m^2 was implemented during week 1. Primary objectives included the evaluation of safety, tolerability, and pharmacokinetics. The secondary objective was a preliminary evaluation of efficacy, assessed using ELN criteria. Exploratory endpoints included pharmacodynamic evaluation of MCL-1 inhibition in circulating AML blasts.

[4] = in vivo
caspase 3 = assay: Caspase 3 cleavage in OPM2-Luc tumor xenografts (PD); assay type: in vivo, mice; settings: for induction of caspase 3 cleavage: 4-, vs vehicle p<0.05
Description: Activation of the pro-apoptotic pore-forming protein BAK and proteolytic cleavage of the cysteine-aspartic acid protease caspase 3 (hallmarks of the induction of apoptosis) in MCL1-dependent OPM2-Luc multiple myeloma tumor cells served as a PD assay. Female athymic nude mice were injected with 5×10^6 cells in 0.1 mL subcutaneously (SC). […] Mice were euthanized 2, 4, 8, 12, and 24 hours postdose (n=3/group), terminal plasma samples were collected for PK analysis, and tumors were halved and snap frozen in liquid nitrogen for PK and molecular analyses. Tumor lysates were prepared for evaluation of BAK activation and caspase 3 cleavage using an electrochemiluminescence immunoassay. Tumors treated with vehicle (25% HPβCD, pH 8) served as a negative control and indicated the baseline level of apoptosis.

Raji = assay: Cell viability (CellTiterGlo), Raji; assay type: cell-based; settings: Homo sapiens, NHL, 24 hours, 10% FBS, read-out: AMS 176 IC50
Mouse MCL1 = Mouse MCL1 (Mus musculus, UniProt P97287); assay: Cell-free TR-FRET BIM-binding assay, Mouse MCL1; settings: BIM-binding partner Mouse MCL1; n = 3
Sequence of Mouse MCL1 (P97287 whole entry): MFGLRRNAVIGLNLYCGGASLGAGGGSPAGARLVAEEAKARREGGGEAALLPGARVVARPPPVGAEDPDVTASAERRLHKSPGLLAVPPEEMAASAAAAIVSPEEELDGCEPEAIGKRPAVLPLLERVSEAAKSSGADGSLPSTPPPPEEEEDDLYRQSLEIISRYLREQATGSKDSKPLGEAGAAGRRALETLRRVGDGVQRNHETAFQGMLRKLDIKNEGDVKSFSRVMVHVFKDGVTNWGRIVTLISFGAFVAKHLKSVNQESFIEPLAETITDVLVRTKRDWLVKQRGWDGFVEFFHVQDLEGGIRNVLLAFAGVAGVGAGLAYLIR

[5] = Plasma protein binding in vitro; assay type: in vitro ADME
dogs = assay: 28-day GLP IV toxicology study in dogs; assay type: in vivo; settings: dog
Description: The doses selected for the 28-day IV rat and dog toxicology studies were intended to characterize the toxicity of the compound of Formula I and provide data to support a starting dose in the first-in-human (FIH) study. An IV route of administration and a dosing schedule of 2 days on/5 days off was used to support the anticipated clinical route and dosing schedule.

Namalwa = assay: Cell viability (CellTiterGlo), Namalwa; assay type: cell-based; settings: NHL, 24 hours, 10% FBS, read-out: AMS 176 IC50
Toledo = assay: Cell viability (CellTiterGlo), Toledo; assay type: cell-based; settings: Homo sapiens, NHL, 24 hours, 10% FBS, read-out: AMS 176 IC50
Monkey MCL1 = Monkey MCL1 (Macaca fascicularis, UniProt A0A2K5W0Y7); assay: Cell-free TR-FRET BIM-binding assay, Monkey MCL1; settings: read-out: IC50 (Mean ± SD) of AMG 176 With Respect to Binding; BIM-binding partner Monkey MCL1; n = 3
Sequence of Monkey MCL1 (A0A2K5W0Y7 1-346): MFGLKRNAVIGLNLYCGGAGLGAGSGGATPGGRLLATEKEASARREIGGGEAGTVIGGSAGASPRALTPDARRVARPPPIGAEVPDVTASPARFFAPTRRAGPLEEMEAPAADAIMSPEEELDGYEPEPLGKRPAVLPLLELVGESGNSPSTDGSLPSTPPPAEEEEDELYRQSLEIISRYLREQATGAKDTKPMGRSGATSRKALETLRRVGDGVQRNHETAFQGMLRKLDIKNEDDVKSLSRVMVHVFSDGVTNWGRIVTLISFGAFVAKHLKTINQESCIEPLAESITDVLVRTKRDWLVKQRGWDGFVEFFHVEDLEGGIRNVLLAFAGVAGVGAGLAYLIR

rat blood = assay: In vitro hemolysis of whole blood, rat; settings: 0.048, 0.12, 0.24, 1.2, and 2.4 mg/mL, vehicles containing hydroxypropyl-β-cyclodextrin
KMS26 = assay: Cell viability (CellTiterGlo), KMS26; assay type: cell-based; settings: KMS-26; KMS26, Multiple myeloma; 24 hours; 10% FBS; read-out: AMS 176 IC50
[6] = TEAEs occurring in ≥2 patients, N = 11

For CO[C@H]1/C=C/C[C@H](C)[C@@H](C)S(=O)(=O)NC(=O)c2ccc3c(c2)N(C[C@@H]2CC[C@H]21)C[C@@]1(CCCc2cc(Cl)ccc21)CO3 [AMG 176], the half-life [1] was 1.66 h, the IC50 (MM1S) was 5120 nM and the IC50 (KMS34) was 6050 nM. It also gave an IC50 (MM1R) of 1140 nM, an IC50 (KMM1) of 407 nM and an IC50 (Pfeiffer) of 18900 nM. The IC50 ([2]; OPM-2, growth medium containing 5% human serum) was 703 nM, the IC50 ([2]; OPM-2, growth medium containing 10% fetal bovine serum) was 236 nM and the IC50 ([2]; OPM-2, serum-free growth medium) was 15.5 nM. For the same compound, the “plasma exposures versus dose” value ([3]; 60-180 mg/m^2) was “increased in a dose-related manner”, the “Treatment-related AEs, patients” value ([3]; AML, 11 patients) was 46% and the fatal adverse events ([3]; AML, 11 patients) was “No fatal adverse events were observed”. The “grade ≥3 TEAEs, patients” value ([3]; AML, 11 patients) was 73%, the “grade ≥3 anemia” value ([3]; AML, 11 patients) was 18% and the “grade ≥3 treatment-related AEs, patients” value ([3]; AML, 11 patients) was 18%. For the same compound, the “nausea, any grade” value ([3]; AML, 11 patients) was 36%, the “peripheral edema, any grade” value ([3]; AML, 11 patients) was 36% and the “TEAEs of any grade, patients” value ([3]; AML, 11 patients, 60-180 mg/m^2 IV) was 91%. The “Anemia, Grade ≥3” value ([3]; Grade ≥3 TEAEs occurring in ≥2 patients, N = 11) was 2 (18.2) n (%), the “time of maximum plasma concentrations” value ([3]; IV infusion over a minimum of 2 hours) was “close to the end of intravenous infusion” and the “All TEAEs” value ([3]; Patients (N = 11)) was 10 (90.9) n (%). The “TEAEs Fatal” value ([3]; Patients (N = 11)) was 0 n (%), the “TEAEs Grade ≥3” value ([3]; Patients (N = 11)) was 8 (72.7) n (%) and the “TEAEs Serious” value ([3]; Patients (N = 11)) was 8 (72.7) n (%). For the same compound, the Anemia [3, 6] was 2 (18.2) n (%), the Hypokalemia [3, 6] was 2 (18.2) n (%) and the Hypomagnesemia [3, 6] was 2 (18.2) n (%). The “Increased blood bilirubin level” value [3, 6] was 2 (18.2) n (%), the Nausea [3, 6] was 4 (36.4) n (%) and the Peripheral edema [3, 6] was 4 (36.4) n (%). The Vomiting [3, 6] was 2 (18.2) n (%), the maximum tolerated dose ([3]; at the data cutoff date) was “not yet reached” and the “safety, tolerability, and pharmacokinetic profile” value ([3]; monotherapy, dose levels evaluated) was “acceptable”. For the same compound, the “pharmacodynamic impact in peripheral blood AML blasts” value ([3]; patient achieving CRi, 3 hours postinfusion) was “release of the proapoptotic protein Bax and activation of effector caspase 3”, the phototoxicity [4] was “not phototoxic” and the “induction of caspase 3 cleavage” value (caspase 3; 20 mg/kg oral gavage, 8-, and 12-hour time points) was “Statistically significant induction of caspase 3 cleavage”. The “induction of caspase 3 cleavage” value (caspase 3; 30 mg/kg oral gavage, 2-, 8-, and 12-hour time points) was “Statistically significant induction of caspase 3 cleavage”, the “induction of caspase 3 cleavage” value (caspase 3; 60 mg/kg oral gavage, 2-, 8-, 12-, and 24-hour time points) was “Statistically significant induction of caspase 3 cleavage” and the “induction of cleaved caspase 3” value (caspase 3; 60 mg/kg, 2 hours postdose, persisted to 12 hours) was “approximately 7.5 fold”. For the same compound, the “cleaved caspase levels above control” value (caspase 3; 60 mg/kg, 24 hours postdose) was 5 fold, the IC50 (Raji) was 3550 nM and the IC50 (Mouse MCL1) was 49.8 nM. For the same compound, the plasma protein binding [5] was “highly plasma-protein bound”, the “finding related to morbidity and mortality” value (dogs) was “mucosal epithelial degeneration in the small and large intestines” and the dose with mortality (dogs; IV, 28-day) was 20 mg/kg. The “highest-nonseverely-toxic dose (HNSTD)” value (dogs; IV, 2 days on/5 days off, 28-day) was 10 mg/kg, the IC50 (Namalwa) was 237 nM and the IC50 (Toledo) was 9700 nM. For the same compound, the IC50 (Monkey MCL1) was 0.182 nM, the “hemolysis of whole blood” value (rat blood) was “cased hemolysis” and the IC50 (KMS26) was 248 nM.
